Source: patent US20070249620A1, “Urea Derivative” (priority 2004, published 2007)

What was measured:
[1] = target: T1, mouse DGAT1 (Mus musculus, UniProt Q9Z2A7); assay: DGAT1 inhibitory effect test (microsome fraction, [14C]-oleoyl-CoA, triglyceride radioactivity by TLC); type: biochemical; settings: 0.5 h; concentration of the test compound 0.1 μg/ml; mouse DGAT1 microsomes, 23° C., 30 minutes; read-out: Inhibitory ratio
T1 construct: made in house; host or cells: insect cells (High Five, Sf9, Sf21, etc.), baculovirus expression system (Invitrogen)
T1 sequence (Q9Z2A7 1-498): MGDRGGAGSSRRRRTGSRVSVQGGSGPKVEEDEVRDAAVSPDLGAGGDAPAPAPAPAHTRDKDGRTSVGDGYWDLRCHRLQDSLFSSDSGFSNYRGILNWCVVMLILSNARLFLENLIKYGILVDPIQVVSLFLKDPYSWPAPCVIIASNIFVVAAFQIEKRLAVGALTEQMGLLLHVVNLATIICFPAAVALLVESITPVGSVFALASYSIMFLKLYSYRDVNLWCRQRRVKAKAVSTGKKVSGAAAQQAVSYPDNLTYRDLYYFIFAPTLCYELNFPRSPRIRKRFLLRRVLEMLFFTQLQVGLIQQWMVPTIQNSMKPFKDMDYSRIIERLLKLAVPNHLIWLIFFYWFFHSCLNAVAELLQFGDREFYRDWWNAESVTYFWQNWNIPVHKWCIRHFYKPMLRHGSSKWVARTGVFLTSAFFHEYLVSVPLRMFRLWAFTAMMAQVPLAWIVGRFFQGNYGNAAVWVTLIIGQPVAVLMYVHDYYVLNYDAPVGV
Summary of the method: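 Inhibition was scored from radiolabelled triglyceride separated by TLC, relative to vehicle and net of a 0-min background. The reaction ran for 30 min at room temperature (23 °C) in Tris-HCl pH 8.0 with MgCl2, BSA and Triton X-100. Substrates were 30 μM [14C]-oleoyl-CoA and 0.5 mM dioleoylglycerol, with mouse DGAT1 microsomes from baculovirus-infected insect cells as enzyme.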

## COc1ccc(C)cc1NC(=O)Nc1ccc(N2CCN(C(=O)Nc3ccc(OCC(O)CO)cc3C)CC2)cc1 (centres unmarked) [Example 276, 4-{4-[3-(2-methoxy-5-methyl-phenyl)-ureido]-phenyl}-piperazine-1-carboxylic acid [4-(2,3-dihydroxy-propoxy)-2-methyl-phenyl]-amide]
[1]
  inhibition at 0.1 µg/mL: ≥ 50%
other
  melting point: 148 to 150 °C

## COc1ccc(C)cc1NC(=O)Nc1ccc(N2CCN(C(=O)Nc3ccc(OCC(O)CO)cc3Cl)CC2)cc1 (centres unmarked) [Example 277, 4-{4-[3-(2-methoxy-5-methyl-phenyl)-ureido]-phenyl}-piperazine-1-carboxylic acid [2-chloro-4-(2,3-dihydroxy-propoxy)-phenyl]-amide]
[1]
  inhibition at 0.1 µg/mL: ≥ 50%
other
  melting point: 134 to 136 °C

## O=C(Nc1ccc(N2CCN(C(=O)Nc3ccc(OCC(O)CO)cc3Cl)CC2)cc1)Nc1ccccc1F (centres unmarked) [Example 278, 4-{4-[3-(2-fluoro-phenyl)-ureido]-phenyl}-piperazine-1-carboxylic acid [2-chloro-4-(2,3-dihydroxy-propoxy)-phenyl]-amide]
[1]
  inhibition at 0.1 µg/mL: ≥ 50%
other
  melting point: 189 to 190 °C

## COc1ccc(F)cc1NC(=O)Nc1ccc(N2CCN(C(=O)Nc3ccc(OCC(O)CO)cc3C(F)(F)F)CC2)nc1 (centres unmarked) [Example 279, 4-{5-[3-(5-fluoro-2-methoxy-phenyl)-ureido]-pyridin-2-yl}-piperazine-1-carboxylic acid [4-(2,3-dihydroxy-propoxy)-2-trifluoromethyl-phenyl]-amide]
[1]
  inhibition at 0.1 µg/mL: ≥ 50%
other
  melting point: 195 °C

## COc1ccc(C)cc1NC(=O)Nc1ccc2c(c1)CCN(C(=O)Nc1ccc(OCC(O)CO)cc1Cl)C2 (centres unmarked) [Example 280, 6-[3-(2-methoxy-5-methyl-phenyl)-ureido]-3,4-dihydro-1H-isoquinoline-2-carboxylic acid [2-chloro-4-(2,3-dihydroxy-propoxy)-phenyl]-amide]
[1]
  inhibition at 0.1 µg/mL: ≥ 50%
other
  melting point: 119 to 121 °C

## COc1ccc(C)cc1NC(=O)Nc1ccc(C2=CCN(C(=O)Nc3ccc(OCC(O)CO)cc3Cl)CC2)cc1 (centres unmarked) [Example 281, 4-{4-[3-(2-methoxy-5-methyl-phenyl)-ureido]-phenyl}-3,6-dihydro-2H-pyridine-1-carboxylic acid [2-chloro-4-(2,3-dihydroxy-propoxy)-phenyl]-amide]
[1]
  inhibition at 0.1 µg/mL: ≥ 50%
other
  melting point: 125 to 128 °C

## COc1ccc(C)cc1NC(=O)Nc1ccc(C2=CCN(C(=O)Nc3ccc(OCC(O)CO)cc3C(F)(F)F)CC2)cc1 (centres unmarked) [Example 282, 4-{4-[3-(2-methoxy-5-methyl-phenyl)-ureido]-phenyl}-3,6-dihydro-2H-pyridine-1-carboxylic acid [4-(2,3-dihydroxy-propoxy)-2-trifluoromethyl-phenyl]-amide]
[1]
  inhibition at 0.1 µg/mL: ≥ 50%
other
  melting point: 135 to 137 °C

## COc1ccc(C)cc1NC(=O)Nc1ccc(C2CCN(C(=O)Nc3ccc(OCC(O)CO)cc3Cl)CC2)cc1 (centres unmarked) [Example 283, 4-{4-[3-(2-methoxy-5-methyl-phenyl)-ureido]-phenyl}-piperidine-1-carboxylic acid [2-chloro-4-(2,3-dihydroxy-propoxy)-phenyl]-amide]
[1]
  inhibition at 0.1 µg/mL: ≥ 50%
other
  melting point: 179 to 181 °C

## COc1ccccc1NC(=O)Nc1ccc2c(c1)CCN(C(=O)Nc1ccc(OCC(O)CO)cc1Cl)C2 (centres unmarked) [Example 284, 6-[3-(2-methoxy-phenyl)-ureido]-3,4-dihydro-1H-isoquinoline-2-carboxylic acid [2-chloro-4-(2,3-dihydroxy-propoxy)-phenyl]-amide]
[1]
  inhibition at 0.1 µg/mL: ≥ 50%
other
  melting point: 107 to 111 °C

## COc1cc(NC(=O)Nc2ccc3c(c2)CCN(C(=O)Nc2ccc(OCC(O)CO)cc2Cl)C3)cc(OC)c1 (centres unmarked) [Example 285, 6-[3-(3,5-dimethoxy-phenyl)-ureido]-3,4-dihydro-1H-isoquinoline-2-carboxylic acid [2-chloro-4-(2,3-dihydroxy-propoxy)-phenyl]-amide]
[1]
  inhibition at 0.1 µg/mL: ≥ 50%
other
  melting point: 108 to 110 °C
